Test system: Mycobacterium tuberculosis H37Rv (ATCC: 25177)
Experiment: Anti-tubercular activity, colorimetric Resazurin Microplate Assay (REMA)
Type: cell-based
Conditions: 192 h, read-out: Anti-tubercular activity against Mycobacterium tuberculosis H37Rv (MIC)

SMILES	MIC [µg/mL]
CC(C)OC(=O)c1cc[n+](CC(=O)c2ccccc2)cc1.[Br-] [Compound 4a, 4-(Isopropoxycarbonyl)-1-(2-oxo-2-phenylethyl)pyridin-1-ium Bromide]	0.5
CC(C)OC(=O)c1cc[n+](CC(=O)c2ccc(F)cc2)cc1.[Br-] [Compound 4b, 1-(2-(4-Fluorophenyl)-2-oxoethyl)-4-(isopropoxycarbonyl)pyridin-1-ium bromide]	1
